Legend:
Format in all cases: biochemical
Conditions in all cases: labelled compound; histone H1, MBP or casein as phosphoacceptor; 10 µM ATP, Mg/Mn, pH 7.5, 37 °C
PfCLK-3 = target: T1, PfCLK-3 (Plasmodium falciparum, UniProt Q8IIL5); assay: radiometric kinase assay of immunoprecipitate, autoradiography
T1 construct: gene PF3D7_1114700; endogenous full-length, about 80 kDa, immunoprecipitated from mixed asexual blood stage lysate on protein G-beads
T1 sequence (Q8IIL5 1-699): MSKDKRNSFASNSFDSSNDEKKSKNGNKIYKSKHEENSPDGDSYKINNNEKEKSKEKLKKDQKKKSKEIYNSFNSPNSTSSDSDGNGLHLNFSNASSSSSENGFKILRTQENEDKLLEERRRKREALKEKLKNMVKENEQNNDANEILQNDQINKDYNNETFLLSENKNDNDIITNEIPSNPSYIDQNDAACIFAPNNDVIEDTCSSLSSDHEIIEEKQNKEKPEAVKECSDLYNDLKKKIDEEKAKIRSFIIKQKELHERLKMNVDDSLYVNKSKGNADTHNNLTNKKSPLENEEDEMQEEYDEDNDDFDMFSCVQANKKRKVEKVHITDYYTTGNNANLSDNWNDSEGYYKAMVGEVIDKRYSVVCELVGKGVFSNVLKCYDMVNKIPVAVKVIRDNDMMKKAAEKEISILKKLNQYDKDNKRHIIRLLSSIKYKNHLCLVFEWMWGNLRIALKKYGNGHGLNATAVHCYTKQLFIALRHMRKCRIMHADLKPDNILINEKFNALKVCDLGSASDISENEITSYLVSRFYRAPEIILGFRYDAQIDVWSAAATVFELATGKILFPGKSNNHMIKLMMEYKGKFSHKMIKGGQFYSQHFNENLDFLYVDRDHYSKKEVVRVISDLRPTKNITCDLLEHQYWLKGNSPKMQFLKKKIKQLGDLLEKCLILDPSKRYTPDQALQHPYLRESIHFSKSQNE

PfCLK-2 = target: T2, PfCLK-2 (Plasmodium falciparum, UniProt Q8IL41); assay: as above
T2 construct: gene PF3D7_1443000; endogenous full-length, about 150 kDa, immunoprecipitated from mixed asexual blood stage lysate on protein G-beads
T2 sequence (Q8IL41 1-1268): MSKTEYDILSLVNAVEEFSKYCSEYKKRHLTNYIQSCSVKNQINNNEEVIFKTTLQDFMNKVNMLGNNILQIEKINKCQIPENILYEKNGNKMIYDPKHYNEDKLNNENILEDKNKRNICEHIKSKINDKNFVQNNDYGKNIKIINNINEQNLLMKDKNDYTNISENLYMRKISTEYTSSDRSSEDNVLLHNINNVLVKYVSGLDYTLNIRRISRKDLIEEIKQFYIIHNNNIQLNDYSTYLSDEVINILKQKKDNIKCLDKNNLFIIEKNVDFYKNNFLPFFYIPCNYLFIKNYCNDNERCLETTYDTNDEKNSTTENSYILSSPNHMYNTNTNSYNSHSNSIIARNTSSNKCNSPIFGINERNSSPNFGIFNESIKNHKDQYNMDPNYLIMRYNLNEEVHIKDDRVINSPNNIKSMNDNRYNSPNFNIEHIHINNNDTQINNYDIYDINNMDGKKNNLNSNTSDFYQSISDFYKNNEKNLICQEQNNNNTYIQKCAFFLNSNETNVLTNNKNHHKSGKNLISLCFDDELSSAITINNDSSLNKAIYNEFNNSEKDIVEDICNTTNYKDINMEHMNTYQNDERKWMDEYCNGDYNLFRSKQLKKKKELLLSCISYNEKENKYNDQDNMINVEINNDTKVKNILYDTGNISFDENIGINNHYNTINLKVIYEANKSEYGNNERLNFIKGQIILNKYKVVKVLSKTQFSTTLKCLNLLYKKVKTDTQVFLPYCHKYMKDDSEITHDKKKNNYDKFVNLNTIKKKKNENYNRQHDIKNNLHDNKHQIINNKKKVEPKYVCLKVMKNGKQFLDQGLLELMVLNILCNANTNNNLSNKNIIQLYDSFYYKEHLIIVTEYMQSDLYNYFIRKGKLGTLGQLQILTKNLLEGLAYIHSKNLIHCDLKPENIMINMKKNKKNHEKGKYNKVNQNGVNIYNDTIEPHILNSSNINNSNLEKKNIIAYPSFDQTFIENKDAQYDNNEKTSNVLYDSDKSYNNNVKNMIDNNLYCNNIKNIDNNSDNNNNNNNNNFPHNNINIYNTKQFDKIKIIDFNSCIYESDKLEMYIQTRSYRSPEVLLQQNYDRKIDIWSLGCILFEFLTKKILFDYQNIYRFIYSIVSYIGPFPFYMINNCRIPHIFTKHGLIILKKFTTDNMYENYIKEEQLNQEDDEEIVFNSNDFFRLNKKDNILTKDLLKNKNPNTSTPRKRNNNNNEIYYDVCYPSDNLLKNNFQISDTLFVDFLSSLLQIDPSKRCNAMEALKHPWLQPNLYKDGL

PfCLK-4 = target: T3, PfCLK-4 (Plasmodium falciparum, UniProt O77306); assay: as above
T3 construct: gene PF3D7_0302100; endogenous full-length, about 160 kDa, immunoprecipitated from mixed asexual blood stage lysate on protein G-beads
T3 sequence (O77306 1-1338): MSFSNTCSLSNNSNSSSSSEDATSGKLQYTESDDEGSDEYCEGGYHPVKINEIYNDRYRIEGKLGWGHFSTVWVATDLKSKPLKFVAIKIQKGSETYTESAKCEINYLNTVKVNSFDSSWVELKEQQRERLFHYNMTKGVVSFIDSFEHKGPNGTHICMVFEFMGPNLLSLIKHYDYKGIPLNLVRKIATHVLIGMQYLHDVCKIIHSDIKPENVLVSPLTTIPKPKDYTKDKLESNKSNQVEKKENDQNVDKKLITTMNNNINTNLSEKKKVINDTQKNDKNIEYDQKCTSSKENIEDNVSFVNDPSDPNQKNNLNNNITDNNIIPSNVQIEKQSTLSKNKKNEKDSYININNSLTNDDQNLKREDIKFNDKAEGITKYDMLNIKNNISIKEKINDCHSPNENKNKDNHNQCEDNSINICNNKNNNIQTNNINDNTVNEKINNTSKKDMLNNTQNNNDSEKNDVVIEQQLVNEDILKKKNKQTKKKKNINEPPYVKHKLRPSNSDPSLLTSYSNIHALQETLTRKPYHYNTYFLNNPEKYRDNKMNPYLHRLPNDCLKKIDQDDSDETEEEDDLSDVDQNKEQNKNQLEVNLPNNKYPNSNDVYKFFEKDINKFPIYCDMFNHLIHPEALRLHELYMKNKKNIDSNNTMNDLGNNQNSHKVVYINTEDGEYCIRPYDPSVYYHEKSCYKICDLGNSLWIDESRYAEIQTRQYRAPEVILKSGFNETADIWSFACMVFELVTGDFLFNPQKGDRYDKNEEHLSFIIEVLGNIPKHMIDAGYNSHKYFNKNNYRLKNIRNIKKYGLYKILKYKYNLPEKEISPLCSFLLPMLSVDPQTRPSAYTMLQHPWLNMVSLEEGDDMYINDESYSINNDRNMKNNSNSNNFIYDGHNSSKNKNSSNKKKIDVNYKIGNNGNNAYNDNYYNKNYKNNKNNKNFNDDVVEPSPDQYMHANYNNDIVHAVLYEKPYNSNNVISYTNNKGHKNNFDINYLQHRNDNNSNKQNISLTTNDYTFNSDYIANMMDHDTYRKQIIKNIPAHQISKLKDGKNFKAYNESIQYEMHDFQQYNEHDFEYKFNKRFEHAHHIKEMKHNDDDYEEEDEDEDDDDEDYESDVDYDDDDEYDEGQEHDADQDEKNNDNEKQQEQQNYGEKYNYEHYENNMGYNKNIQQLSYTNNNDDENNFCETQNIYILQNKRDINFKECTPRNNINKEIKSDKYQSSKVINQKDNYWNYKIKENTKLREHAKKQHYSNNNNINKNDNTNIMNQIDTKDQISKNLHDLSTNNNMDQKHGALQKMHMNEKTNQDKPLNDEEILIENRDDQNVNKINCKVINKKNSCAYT

PfPK6 = target: T4, PfPK6 (Plasmodium falciparum, UniProt O77239); assay: radiometric kinase assay, autoradiography
T4 construct: gene PK6; recombinant His6-tagged, purified as previously reported
T4 sequence (O77239 1-305): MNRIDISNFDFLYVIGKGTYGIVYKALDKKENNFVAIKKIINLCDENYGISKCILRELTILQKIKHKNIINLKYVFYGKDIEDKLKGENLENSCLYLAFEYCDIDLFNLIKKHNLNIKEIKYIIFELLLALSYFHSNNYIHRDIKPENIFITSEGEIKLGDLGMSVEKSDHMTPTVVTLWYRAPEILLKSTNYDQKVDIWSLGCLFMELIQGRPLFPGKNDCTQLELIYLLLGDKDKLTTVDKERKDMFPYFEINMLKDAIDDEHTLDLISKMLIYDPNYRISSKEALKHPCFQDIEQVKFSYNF

Nc1ncnc2c1ncn2[C@@H]1O[C@H](COP(=O)(O)OP(=O)(O)OP(=O)(O)O)[C@@H](O)[C@H]1O [ATP]
radiometric kinase assay of immunoprecipitate, autoradiography (PfCLK-3): All PfCLKs were associated with phosphorylation activity of all three substrates
radiometric kinase assay of immunoprecipitate, autoradiography (PfCLK-2): All PfCLKs were associated with phosphorylation activity of all three substrates
radiometric kinase assay of immunoprecipitate, autoradiography (PfCLK-4): All PfCLKs were associated with phosphorylation activity of all three substrates
radiometric kinase assay, autoradiography (PfPK6): also exhibited strong phosphorylation activity of the three exogenous substrates

From publication PMC4154858, “Inhibition of the SR Protein-Phosphorylating CLK Kinases of Plasmodium falciparum Impairs Blood Stage Replication and Malaria Transmission” (PLoS ONE, 2014)
